Data taken from patent publication US9221809B2 (MERCK SHARP & DOHME CORP., priority 2011, dated 2015).
Structures can show the parent of a compound that is named as a salt.

Target: IRAK4 (Homo sapiens (Human), UniProt Q9NWZ3)
Assay: IRAK4 kinase activity, IMAP fluorescence polarization assay
Assay type: biochemical
Details: 100 μM ATP, 0.5 nM GST tagged IRAK4; read-out: IRAK4 IC50
How it was run: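 GST-tagged IRAK4 at 0.5 nM phosphorylates 100 nM fluorescent peptide substrate with 100 μM ATP in pH 7.2 Tris buffer containing MgCl2, DTT and Tween 20, 30 min at 25 °C. Reaction stopped with IMAP binding reagent; phosphorylation read as increased fluorescence polarization.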

Chain of IRAK4 (Q9NWZ3 whole entry): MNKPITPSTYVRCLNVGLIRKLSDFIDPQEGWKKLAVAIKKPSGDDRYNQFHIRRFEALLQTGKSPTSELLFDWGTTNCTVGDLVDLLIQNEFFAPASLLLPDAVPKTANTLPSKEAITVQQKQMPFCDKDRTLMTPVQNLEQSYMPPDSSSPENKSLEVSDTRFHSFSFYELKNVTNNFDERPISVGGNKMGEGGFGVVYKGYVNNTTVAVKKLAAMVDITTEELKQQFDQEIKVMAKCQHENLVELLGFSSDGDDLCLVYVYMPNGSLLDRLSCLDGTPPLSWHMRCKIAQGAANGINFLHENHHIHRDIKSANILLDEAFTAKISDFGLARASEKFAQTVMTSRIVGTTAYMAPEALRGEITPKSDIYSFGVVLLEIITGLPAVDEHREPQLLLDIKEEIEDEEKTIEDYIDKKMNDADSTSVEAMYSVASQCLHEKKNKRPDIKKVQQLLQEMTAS

Row | Compound | IC50
1 | CC(C)[C@H]1C[C@@H](Nc2nc(N3CCOCC3)[nH]c(=O)c2-c2nc3ccccc3s2)[C@H](O)[C@@H]1O [Example 42, 5-(Benzo[d]thiazol-2-yl)-6-((1R,2S,3R,4R)-2,3-dihydroxy-4-isopropylcyclopentylamino)-2-morpholinopyrimidin-4(3H)-one.HCl] | 72 nM
2 | CC(C)[C@H]1C[C@@H](Nc2nc(N3CCC(c4cncnc4)CC3)[nH]c(=O)c2-c2nc3ccccc3s2)[C@H](O)[C@@H]1O [Example 44, 5-(Benzo[d]thiazol-2-yl)-6-((1R,2S,3R,4R)-2,3-dihydroxy-4-isopropylcyclopentylamino)-2-(4-(pyrimidin-5-yl)piperidin-1-yl)pyrimidin-4(3H)-one.HCl] | 23 nM
3 | O=c1[nH]c(N2CCCCC2)nc(N[C@@H]2C[C@H](CO)[C@@H](O)[C@H]2O)c1-c1nc(-c2ccc(F)cc2)cs1 [Example 59, 6-(((1R,2S,3R,4R)-2,3-Dihydroxy-4-(hydroxymethyl)cyclopentyl)amino)-5-(4-(4-fluorophenyl)thiazol-2-yl)-2-(piperidin-1-yl)pyrimidin-4(3H)-one HCl] | 22.5 nM
4 | CC1CCC(Nc2nc(N3CCOCC3)[nH]c(=O)c2-c2ccc3ccccc3n2)CN1 (centres unmarked) [Example 107, 6-((6-methylpiperidin-3-yl)amino)-2-morpholino-5-(quinolin-2-yl)pyrimidin-4(3H)-one.HCl] | 91 nM
5 | O=c1[nH]c(NC2CCC2)nc(NC[C@H](O)CO)c1-c1nc2ccccc2s1 [Example 49, (S)-5-(Benzo[d]thiazol-2-yl)-2-(cyclobutylamino)-6-(2,3-dihydroxypropylamino)pyrimidin-4(3H)-one.HCl] | 5330 nM
6 | O=c1[nH]c(N2CCOCC2)nc(N[C@@H]2CCCNC2)c1-c1nccs1 [Example 101, (R)-2-morpholino-6-(piperidin-3-ylamino)-5-(thiazol-2-yl)pyrimidin-4(3H)-one.HCl] | 1830 nM
7 | CN1CCN(c2nc(N[C@@H]3CCCNC3)c(-c3ccc4ccccc4n3)c(=O)[nH]2)CC1 [Example 116, (R)-2-(4-methylpiperazin-1-yl)-6-(piperidin-3-ylamino)-5-(quinolin-2-yl)pyrimidin-4(3H)-one.HCl] | 97 nM
8 | O=c1[nH]c(N2CCOCC2)nc(N[C@H]2CCNC2)c1-c1nc2ccccc2s1 [Example 86, (S)-5-(Benzo[d]thiazol-2-yl)-2-morpholino-6-(pyrrolidin-3-ylamino)pyrimidin-4(3H)-one.HCl] | 620 nM
9 | O=c1[nH]c(N2CCOCC2)nc(N[C@@H]2CCCNC2)c1-c1nc2cccc(C3CC3)c2s1 [Example 344, 5-(7-cyclopropyl-1,3-benzothiazol-2-yl)-2-(morpholin-4-yl)-6-[[(3R)-piperidin-3-yl]amino]-3,4-dihydropyrimidin-4-one trifluoroacetic acid] | 4500 nM
10 | O=c1[nH]c(N2CCOCC2)nc(N[C@@H]2CCCNC2)c1-c1nc2cccc(C(F)(F)F)c2s1 [Example 338, (R)-2-morpholino-6-(piperidin-3-ylamino)-5-(7-(trifluoromethyl)benzo[d]thiazol-2-yl)pyrimidin-4(3H)-one] | 520 nM
11 | N[C@@H]1CCCC[C@H]1Nc1cccc2sc(-c3c(N[C@@H]4CCCNC4)nc(N4CCOCC4)[nH]c3=O)nc12 (racemic) [Example 352, 5-(4-[[(trans, rac)-2-aminocyclohexyl]amino]-1,3-benzothiazol-2-yl)-2-(morpholin-4-yl)-6-[[(3R)-piperidin-3-yl]amino]-3,4-dihydropyrimidin-4-one] | 5400 nM
12 | O=c1[nH]c(N2CCOCC2)nc(N[C@@H]2CCCNC2)c1-c1nc2cc(C3CC3)ccc2s1 [Example 346, 5-(5-cyclopropyl-1,3-benzothiazol-2-yl)-2-(morpholin-4-yl)-6-[[(3R)-piperidin-3-yl]amino]-3,4-dihydropyrimidin-4-one trifluoroacetic acid] | 330 nM
13 | O=c1[nH]c(NC2CCNC2)nc(N[C@@H]2C[C@H](CO)[C@@H](O)[C@H]2O)c1-c1nc2ccccc2s1 (stereo partly drawn) [Example 37, 5-(Benzo[d]thiazol-2-yl)-6-(((1R,2S,3R,4R)-2,3-dihydroxy-4-(hydroxymethyl)cyclopentyl)amino)-2-(pyrrolidin-3-ylamino)pyrimidin-4(3H)-one.HCl] | 2000 nM
14 | O=c1[nH]c(N[C@@H]2C[C@H](CO)[C@@H](O)[C@H]2O)c(-c2nc3ccccc3s2)c(=O)[nH]1 [Example 7, 5-(Benzo[d]thiazol-2-yl)-6-((1R,2S,3R,4R)-2,3-dihydroxy-4-(hydroxymethyl)cyclopentylamino)pyrimidine-2,4(1H,3H)-dione.HCl] | 1490 nM
15 | CN1CCN(c2nc(N[C@@H]3CCCNC3)c(-c3nc4c(C5CC5)nccc4s3)c(=O)[nH]2)CC1 [Example 120, (R)-5-(4-cyclopropylthiazolo[4,5-c]pyridin-2-yl)-2-(4-methylpiperazin-1-yl)-6-(piperidin-3-ylamino)pyrimidin-4(3H)-one.HCl] | 30 nM

Same assay, conditions: 100 μM ATP; read-out: IC50

Row | Compound | IC50
16 | O=C1C[C@H](Nc2nc(N[C@@H]3CCCNC3)c(-c3nc4ccccc4s3)c(=O)[nH]2)Cc2ccccc2N1 [Example 304] | 8900 nM
17 | CC1CN(c2nc(N[C@@H]3CCCNC3)c(-c3nc4ccccc4s3)c(=O)[nH]2)CC(C)O1 (stereo partly drawn) [Example 294, 5-(benzo[d]thiazol-2-yl)-2-(2,6-dimethylmorpholino)-6-((R)-piperidin-3-ylamino)pyrimidiri-4{3H)-one] | 300 nM
18 | O=c1[nH]c(N2CCOCC2)nc(NCC(O)CO)c1-c1ccc2ccccc2n1 (centres unmarked) [Example 281, 6-[(2,3-dihydroxypropyl)amino]-2-(morpholin-4-yl)-5-(quinolin-2-yl)-3,4-dihydropyrimidin-4-one] | 1700 nM
19 | O=c1[nH]c(N2CC3CCC(C2)O3)nc(N[C@@H]2CCCNC2)c1-c1nc2ccccc2s1 [Example 300, 5-(1,3-benzothiazol-2-yl)-2-[8-oxa-3-azabicyclo[3.2.1]octan-3-yl]-6-[[(3R)-piperidin-3-yl]amino]-3,4-dihydropyrimidin-4-one; trifluoroacetic acid] | 43 nM
20 | CC1CC(C)CN(c2nc(N[C@@H]3CCCNC3)c(-c3nc4ccccc4s3)c(=O)[nH]2)C1 (stereo partly drawn) [Example 296, 5-(1,3-benzothiazol-2-yl)-2-(3,5-dimethylpiperidin-1-yl)-6-[[(3R)-piperidin-3-yl]amino]-3,4-dihydropyrimidin-4-one trifluoroacetic acid] | 570 nM
21 | CCS(=O)(=O)N1CCC(c2nc(N[C@@H]3CCCNC3)c(-c3nc4ccccc4s3)c(=O)[nH]2)CC1 [Example 236] | 550 nM
22 | N=C(N)CNc1nc(N2CCOCC2)[nH]c(=O)c1-c1nc2ccccc2s1 [Example 250, 2-[[5-(1,3-benzothiazol-2-yl)-2-(morpholin-4-yl)-6-oxo-1,6-dihydropyrimidin-4-yl]amino]ethanimidamide] | 300 nM
23 | O=c1[nH]c(N2CCOCC2)nc(N[C@@H]2C[C@@H]3CN[C@H]2C3)c1-c1nc2ccccc2s1 [Example 211, 6-((1S,4R,6R)-2-azabicyclo[2.2.1]heptan-6-ylamino)-5-(benzo[d]thiazol-2-yl)-2-morpholinopyrimidin-4(3H)-one] | 191 nM
24 | O=c1[nH]c(N2CCOCC2)nc(N[C@H]2c3ccccc3C[C@H]2O)c1-c1nc2ccccc2s1 [Example 267, 5-(benzo[d]thiazol-2-yl)-6-((1S,2R)-2-hydroxy-2,3-dihydro-1H-inden-1-ylamino)-2-morpholinopyrimidin-4(3H)-one] | 8300 nM

Same assay, conditions: 100 μM ATP; read-out: IRAK4 IC50

Row | Compound | IC50
25 | O=c1[nH]c(N2CCOCC2)nc(N[C@@H]2CCCNC2)c1-c1nc(-c2ccc(C(F)(F)F)cn2)cs1 [Example 206] | 2400 nM
26 | O=c1[nH]c(N2CCC[C@H]2CF)nc(N[C@@H]2CCCNC2)c1-c1ccc2ccccc2n1 [Example 183, 2-((S)-2-(fluoromethyl)pyrrolidin-1-yl)-6-((R)-piperidin-3-ylamino)-5-(quinolin-2-yl)pyrimidin-4(3H)-one] | 85 nM
27 | O=c1[nH]c(N2CCN(c3ccccc3F)CC2)nc(N[C@@H]2CCCNC2)c1-c1nc2ccccc2s1 [Example 146, (R)-5-(benzo[d]thiazol-2-yl)-2-(4-(2-fluorophenyl)piperazin-1-yl)-6-(piperidin-3-ylamino)pyrimidin-4(3H)-one] | 16 nM
28 | COC1(C)CN(c2nc(N[C@@H]3CCCNC3)c(-c3ccc4ccccc4n3)c(=O)[nH]2)C1 [Example 176, (R)-2-(3-methoxy-3-methylazetidin-1-yl)-6-(piperidin-3-ylamino)-5-(quinolin-2-yl)pyrimidin-4(3H)-one] | 22 nM
29 | O=c1[nH]c(N2CCC(c3ccccc3C(F)(F)F)CC2)nc(N[C@@H]2CCCNC2)c1-c1ccc2ccccc2n1 [Example 190, (R)-6-(piperidin-3-ylamino)-5-(quinolin-2-yl)-2-(4-(2-(trifluoromethyl)phenyl)piperidin-1-yl)pyrimidin-4(3H)-one] | 32 nM
30 | O=c1[nH]c(N2CCOCC2)nc(N[C@@H]2CCCNC2)c1-c1nc(-c2ccccc2F)cs1 [Example 201] | 60 nM

Same assay, conditions: unit inferred; 100 μM ATP; read-out: IRAK4 IC50

Row | Compound | IC50
31 | Cn1cc(C2CCN(c3nc(N[C@@H]4C[C@H](CO)[C@@H](O)[C@H]4O)c(-c4nc5ccccc5s4)c(=O)[nH]3)CC2)nn1 [Example 73, 5-(benzo[d]thiazol-2-yl)-6-((1R,2S,3R,4R)-2,3-dihydroxy-4-(hydroxymethyl)cyclopentylamino)-2-(4-(1-methyl-1H-1,2,3-triazol-4-yl)piperidin-1-yl)pyrimidin-4(3H)-one] | 19.4 nM
32 | O=c1[nH]c(N2CCC(n3ccnn3)CC2)nc(N[C@@H]2C[C@H](CO)[C@@H](O)[C@H]2O)c1-c1nc2ccccc2s1 [Example 67, 2-(4-(1H-1,2,3-triazol-1-yl)piperidin-1-yl)-5-(benzo[d]thiazol-2-yl)-6-((1R,2S,3R,4R)-2,3-dihydroxy-4-(hydroxymethyl)cyclopentylamino)pyrimidin-4(3H)-one] | 11.8 nM
